These results are taken from US20230310435A1, “HOST DEFENSE PROTEIN (HDP) MIMETICS FOR PROPHYLAXIS AND/OR TREATMENT OF INFLAMMATORY DISEASES OF THE GASTROINTESTINAL TRACT” (priority 2015, published 2023).

SMILES strings stand for the structures. pIC50: −log10 of the molar value. Counter-ions that a name gives are not always drawn.

Series [1] has as its system LPS-induced IL-6 release, NR8383 cells. Put plainly: LPS-induced IL-6 release in NR8383 rat macrophages (ELISA). Format: cell-based. The following applies: Macrophage. The protocol: Method for FIG. 10. […] After 8 hours, supernatants were collected for IL-6 measurement by ELISA using immunoassay kit (R&D Systems, Minneapolis, MN) according to manufacturer's instructions.
The inhibition of IL-6 induction assay was performed according to the Method described for FIG. 10.
(§1) PDE4 and PDE3 inhibition results in subsequent down-regulation of pro-inflammatory cytokines/chemokines and its regulators, and experiments were conducted to confirm such down-regulation by brilacidin in ex vivo cell-based assays. In these assays, cells were exposed to brilacidin 45 minutes before an 8-hour lipopolysaccharide (LPS) stimulation in the presence of brilacidin; cytokine/enzyme concentrations were determined by ELISA using a standard immunoassay kit.

Series [2] concerns LPS-induced CINC-3 release, NR8383 cells. The series is described as follows: LPS-induced CINC-3 (CXCL2) release in NR8383 rat alveolar macrophages (ELISA). Format: cell-based. The following applies: Macrophage, 8-hour brilacidin and LPS exposure, read-out: IC50, inhibition of LPS-induced CINC-3 release. The procedure:
To examine the effect of brilacidin on production in cells of cytokine-induced neutrophil chemoattractant-3 (CINC-3; CXCL2), rat alveolar macrophage (NR8383) cells were pretreated with a range of brilacidin concentrations for 45 minutes, followed by treatment with 1 μg/ml LPS from E. coli (Sigma, St. Louis, MO) for 8 hours in the presence of brilacidin. After 8 hours, supernatants were collected for CINC-3 measurement by ELISA. CINC-3 was measured using an immunoassay kit according to manufacturer's instructions (R&D Systems, Minneapolis, MN).
as §1

The nature of another series: in vivo. Details: species or system male Balb/c mice. The following applies: mouse, 10 mg/kg. The protocol: Method for FIG. 12. […] The small intestine with content of each animal for were harvested and placed per animal per tissue into a tube. The small intestine with content samples were snap frozen in dry ice and then stored at −80° C. until bioanalysis. All the samples were labeled with detailed information such as study number, animal number, matrix, and time points of collection and date of collection. In addition, the extra animals obtained for the study, but not placed on study were used for collection of small intestine with content. The resulting small intestine with content samples were then applied to the development of the bioanalytical method and sample bioanalysis in this study. Bioanalytical analysis was performed on samples by LC-MS/MS.
For analyzing the contents of the small intestine, small intestine samples were homogenized by adding saline (1 g small intestine: 5 mL saline). Small intestine homogenates (50 μL) were transferred to tubes and 250 μL internal standard (IS) working solution (50 ng/mL Carvedilol) was added to each sample. After vortexing for 1 minute and centrifuging for 5 minutes at 15,000 rpm, 100 μL aliquots of supernatant were transferred to glass autosampler vials.
Method for FIG. 13. […] The ratios versus time are shown.
At 1 hour, the concentration in the small intestine peaked at 38,941±4703 ng/gram of tissue (FIG. 12).

As for `N=C(N)NCCCCC(=O)Nc1cc(C(F)(F)F)cc(NC(=O)c2cc(C(=O)Nc3cc(C(F)(F)F)cc(NC(=O)CCCCNC(=N)N)c3O[C@@H]3CCNC3)ncn2)c1O[C@@H]1CCNC1` [PMX-30063, N^4,N^6-bis(2-((R)-pyrrolidin-3-yloxy)-3-((4-carbamoylbutyl)guanidine)-5-(trifluoromethyl)phenyl)pyrimidine-4,6-dicarboxamide tetrahydrochloride salt], the pIC50 in series [1] (NR8383 cells, ELISA, 45 min pretreatment, 8-hour LPS, read-out: IC50, inhibition of LPS-induced IL-6 release) was 6.56. For the same compound, the inhibition at 0.5 µM in series [1] (at 0.5 μM, NR8383, LPS 1 μg/ml 8 h, read-out: decrease in IL-6 levels / inhibition of LPS induced IL-6 production) was approximately 50%. Moreover, the pIC50 in series [2] was 6.37. Besides, the “total exposure (AUC) in the blood upon oral administration” value in “in vivo” (male, Balb/c) is “less than 0.5%”. In the series “in vivo” (male, Balb/c, po), the Cmax is 38900 ng/g, the Kp lay within 2240 to 4320, the Tmax was determined as 60 min and the half-life was 47.4 min. Further, in the series “in vivo” (po), the “AUC(0-t)” value is 86089 ng·h/g, the “AUC(0-∞)” value was 89525 ng·h/g and the “MRT(0-∞)” value came to 1.52 H.
